From ChEMBL document CHEMBL4325903, “N-Substituted aminoquinoline-pyrimidine hybrids: Synthesis, in vitro antimalarial activity evaluation and docking studies” (Eur J Med Chem, 2019)
The source made the active and inactive calls. The calls are words filed in the database; no cut-off is given here.

Experiments:
Plasmodium falciparum [1] = test: Antimalarial activity against chloroquine-resistant Plasmodium falciparum W2 infected in RBC after 72 hrs by LDH release assay; type: functional, organism-based; conditions: W2, 72 h
[2] = Selectivity index, ratio of IC50 for cytotoxicity against African green monkey Vero cells to IC50 for chloroquine-sensitive Plasmodium falciparum D6; type: toxicity, cell-based; conditions: read-out: Ratio IC50
Vero [3] = test: Cytotoxicity against African green monkey Vero cells up to 10 uM after 48 hrs by neutral red assay; type: cell-based; conditions: chlorocebus sabaeus
Plasmodium falciparum [4] = test: Antimalarial activity against chloroquine-sensitive Plasmodium falciparum D6 infected in RBC after 72 hrs by LDH release assay; type: functional, organism-based; conditions: D6, 72 h
[5] = Selectivity index, ratio of IC50 for cytotoxicity against African green monkey Vero cells to IC50 for chloroquine-resistant Plasmodium falciparum W2; type: toxicity, cell-based; conditions: read-out: Ratio IC50
Vero [6] = test: Cytotoxicity against African green monkey Vero cells after 48 hrs by neutral red assay; type: cell-based; conditions: chlorocebus sabaeus
Plasmodium falciparum [7] = test: Potency index, ratio of chloroquine IC50 to compound IC50 for antimalarial activity against chloroquine-resistant Plasmodium falciparum W2 infected in RBC; type: functional
[8] = Binding affinity to hemin assessed as 1:1 stoichiometry for compound-hemin complex up to 12 uM at pH 5.6 by Job's plot analysis
mu-oxodimeric heme = test: Binding affinity to mu-oxodimeric heme assessed as 1:1 up to 20 uM at pH 5.8 by titration method
[9] = Binding affinity to hemin assessed as 1:1 stoichiometry for compound-hemin complex up to 12 uM at pH 7.4 by Job's plot analysis

Cc1cc(N2CCCC2)nc(N(CCCNc2ccnc3cc(Cl)ccc23)Cc2cccs2)n1
IC50 (Plasmodium falciparum [1]): 0.0401 µM | selectivity ratio [2]: > 26.8 | Activity (Vero [3]): Non-Toxic | IC50 (Plasmodium falciparum [4]): 0.0359 µM | selectivity ratio [5]: > 24

Cc1cc(N(CCCNc2ccnc3cc(Cl)ccc23)Cc2cccs2)nc(N2CCCCC2)n1
IC50 (Plasmodium falciparum [1]): 0.235 µM | selectivity ratio [2]: 109 | IC50 (Plasmodium falciparum [4]): 0.0837 µM | selectivity ratio [5]: 38.9 | IC50 (Vero [6]): 9.15 µM

Cc1cc(Cl)nc(N(CCCNc2ccnc3cc(Cl)ccc23)Cc2ccccn2)n1
IC50 (Plasmodium falciparum [1]): 0.804 µM | selectivity ratio [2]: > 6.3 | Activity (Vero [3]): Non-Toxic | IC50 (Plasmodium falciparum [4]): 1.66 µM | selectivity ratio [5]: > 13

Cc1cc(N(CCCNc2ccnc3cc(Cl)ccc23)Cc2ccccn2)nc(N2CCOCC2)n1
IC50 (Plasmodium falciparum [1]): 0.511 µM | selectivity ratio [2]: > 82.5 | Activity (Vero [3]): Non-Toxic | IC50 (Plasmodium falciparum [4]): 0.114 µM | selectivity ratio [5]: > 18.5

Cc1cc(N(CCCNc2ccnc3cc(Cl)ccc23)Cc2cccs2)nc(N2CCCC2)n1
IC50 (Plasmodium falciparum [1]): 0.202 µM | selectivity ratio [2]: > 229 | Activity (Vero [3]): Non-Toxic | IC50 (Plasmodium falciparum [4]): 0.042 µM | selectivity ratio [5]: > 47.7

Cc1cc(N2CCCCC2)nc(N(CCNc2ccnc3cc(Cl)ccc23)Cc2ccccn2)n1
IC50 (Plasmodium falciparum [1]): 1.44 µM | selectivity ratio [2]: > 38.6 | Activity (Vero [3]): Non-Toxic | IC50 (Plasmodium falciparum [4]): 0.252 µM | selectivity ratio [5]: > 6.8

Cc1cc(N2CCOCC2)nc(N(CCCNc2ccnc3cc(Cl)ccc23)Cc2ccccn2)n1
IC50 (Plasmodium falciparum [1]): 0.334 µM | selectivity ratio [2]: > 8.3 | Activity (Vero [3]): Non-Toxic | IC50 (Plasmodium falciparum [4]): 1.14 µM | selectivity ratio [5]: > 28.3

Cc1cc(N(CCNc2ccnc3cc(Cl)ccc23)Cc2ccccn2)nc(Cl)n1
IC50 (Plasmodium falciparum [1]): 0.492 µM | selectivity ratio [2]: > 46.6 | Activity (Vero [3]): Non-Toxic | IC50 (Plasmodium falciparum [4]): 0.233 µM | selectivity ratio [5]: > 22

Cc1cc(N2CCCC2)nc(N(CCNc2ccnc3cc(Cl)ccc23)Cc2ccccn2)n1
IC50 (Plasmodium falciparum [1]): 0.855 µM | selectivity ratio [2]: > 71.7 | Activity (Vero [3]): Non-Toxic | IC50 (Plasmodium falciparum [4]): 0.14 µM | selectivity ratio [5]: > 11.7

Cc1cc(N(CCCNc2ccnc3cc(Cl)ccc23)Cc2ccccn2)nc(N2CCCCC2)n1
IC50 (Plasmodium falciparum [1]): 0.819 µM | selectivity ratio [2]: > 102 | Activity (Vero [3]): Non-Toxic | IC50 (Plasmodium falciparum [4]): 0.093 µM | selectivity ratio [5]: > 11.6

Cc1cc(N(CCCNc2ccnc3cc(Cl)ccc23)Cc2cccs2)nc(N2CCN(C)CC2)n1
IC50 (Plasmodium falciparum [1]): 0.0387 µM | selectivity ratio [2]: > 24.6 | Activity (Vero [3]): Non-Toxic | IC50 (Plasmodium falciparum [4]): 0.037 µM | selectivity ratio [5]: > 23.5

CCN1CCN(c2nc(C)cc(N(CCNc3ccnc4cc(Cl)ccc34)Cc3ccccn3)n2)CC1
IC50 (Plasmodium falciparum [1]): 0.093 µM | selectivity ratio [2]: > 326 | Activity (Vero [3]): Non-Toxic | IC50 (Plasmodium falciparum [4]): 0.028 µM | selectivity ratio [5]: > 98

CCN1CCN(c2nc(C)cc(N(CCCNc3ccnc4cc(Cl)ccc34)Cc3cccs3)n2)CC1
IC50 (Plasmodium falciparum [1]): 0.0312 µM | selectivity ratio [2]: > 24.8 | Activity (Vero [3]): Non-Toxic | IC50 (Plasmodium falciparum [4]): 0.0358 µM | selectivity ratio [5]: > 28.4

Cc1cc(N(CCCNc2ccnc3cc(Cl)ccc23)Cc2ccccn2)nc(N2CCN(C)CC2)n1
IC50 (Plasmodium falciparum [1]): 0.243 µM | selectivity ratio [2]: > 21.6 | Activity (Vero [3]): Non-Toxic | IC50 (Plasmodium falciparum [4]): 0.426 µM | selectivity ratio [5]: > 37.8

Cc1cc(N(CCNc2ccnc3cc(Cl)ccc23)Cc2ccccn2)nc(N2CCCC2)n1
IC50 (Plasmodium falciparum [1]): 0.143 µM | selectivity ratio [2]: > 331 | Activity (Vero [3]): Non-Toxic | IC50 (Plasmodium falciparum [4]): 0.03 µM | selectivity ratio [5]: > 70

Cc1cc(N(CCCNc2ccnc3cc(Cl)ccc23)Cc2ccccn2)nc(N2CCCC2)n1
IC50 (Plasmodium falciparum [1]): 0.14 µM | selectivity ratio [2]: > 274 | Activity (Vero [3]): Non-Toxic | IC50 (Plasmodium falciparum [4]): 0.036 µM | selectivity ratio [5]: > 69

Cc1cc(Cl)nc(N(CCNc2ccnc3cc(Cl)ccc23)Cc2ccccn2)n1
IC50 (Plasmodium falciparum [1]): 1.01 µM | selectivity ratio [2]: 23.2 | IC50 (Plasmodium falciparum [4]): 0.369 µM | selectivity ratio [5]: 8.5

Cc1cc(N2CCOCC2)nc(N(CCNc2ccnc3cc(Cl)ccc23)Cc2ccccn2)n1
IC50 (Plasmodium falciparum [1]): 0.248 µM | selectivity ratio [2]: > 31.2 | Activity (Vero [3]): Non-Toxic | IC50 (Plasmodium falciparum [4]): 0.311 µM | selectivity ratio [5]: > 39.1

CCN1CCN(c2cc(C)nc(N(CCCNc3ccnc4cc(Cl)ccc34)Cc3cccs3)n2)CC1
IC50 (Plasmodium falciparum [1]): 0.0189 µM | Ratio IC50 (Plasmodium falciparum [7]): 22 | selectivity ratio [2]: > 27 | Activity (Vero [3]): Non-Toxic | IC50 (Plasmodium falciparum [4]): 0.0328 µM | selectivity ratio [5]: > 46.8

Cc1cc(N(CCNc2ccnc3cc(Cl)ccc23)Cc2ccccn2)nc(N2CCOCC2)n1
IC50 (Plasmodium falciparum [1]): 0.526 µM | selectivity ratio [2]: > 64.2 | Activity (Vero [3]): Non-Toxic | IC50 (Plasmodium falciparum [4]): 0.152 µM | selectivity ratio [5]: > 18.5

Cc1cc(Cl)nc(N(CCCNc2ccnc3cc(Cl)ccc23)Cc2cccs2)n1
IC50 (Plasmodium falciparum [1]): 0.462 µM | selectivity ratio [2]: > 87.2 | Activity (Vero [3]): Non-Toxic | IC50 (Plasmodium falciparum [4]): 0.119 µM | selectivity ratio [5]: > 22.5

Clc1ccc2c(NCCCNCc3cccs3)ccnc2c1
IC50 (Plasmodium falciparum [1]): 0.0751 µM | selectivity ratio [2]: > 33.8 | Activity (Vero [3]): Non-Toxic | IC50 (Plasmodium falciparum [4]): 0.424 µM | selectivity ratio [5]: > 19.1

Cc1cc(N2CCN(C)CC2)nc(N(CCCNc2ccnc3cc(Cl)ccc23)Cc2cccs2)n1
IC50 (Plasmodium falciparum [1]): 0.0199 µM | selectivity ratio [2]: > 23.4 | Activity (Vero [3]): Non-Toxic | IC50 (Plasmodium falciparum [4]): 0.0389 µM | selectivity ratio [5]: > 45.8

Cc1cc(N2CCN(C)CC2)nc(N(CCCNc2ccnc3cc(Cl)ccc23)Cc2ccccn2)n1
IC50 (Plasmodium falciparum [1]): 0.189 µM | selectivity ratio [2]: > 16.7 | Activity (Vero [3]): Non-Toxic | IC50 (Plasmodium falciparum [4]): 0.551 µM | selectivity ratio [5]: > 48.5

Cc1cc(N(CCNc2ccnc3cc(Cl)ccc23)Cc2ccccn2)nc(N2CCN(C)CC2)n1
IC50 (Plasmodium falciparum [1]): 0.142 µM | Activity [8]: 0.5 molar ratio | Activity (mu-oxodimeric heme): Active | Activity (Vero [3]): Non-Toxic | Activity [9]: 0.5 molar ratio

Cc1cc(N2CCN(C)CC2)nc(N(CCNc2ccnc3cc(Cl)ccc23)Cc2ccccn2)n1
IC50 (Plasmodium falciparum [1]): 0.139 µM | selectivity ratio [2]: > 238 | Activity (Vero [3]): Non-Toxic | IC50 (Plasmodium falciparum [4]): 0.04 µM | selectivity ratio [5]: > 68

Cc1cc(N2CCCC2)nc(N(CCCNc2ccnc3cc(Cl)ccc23)Cc2ccccn2)n1
IC50 (Plasmodium falciparum [1]): 0.389 µM | selectivity ratio [2]: > 9.4 | Activity (Vero [3]): Non-Toxic | IC50 (Plasmodium falciparum [4]): 1.04 µM | selectivity ratio [5]: > 25.1

Cc1cc(N2CCCCC2)nc(N(CCCNc2ccnc3cc(Cl)ccc23)Cc2cccs2)n1
IC50 (Plasmodium falciparum [1]): 0.185 µM | selectivity ratio [2]: 161 | IC50 (Plasmodium falciparum [4]): 0.0446 µM | selectivity ratio [5]: 38.9 | IC50 (Vero [6]): 7.2 µM

Cc1cc(N(CCNc2ccnc3cc(Cl)ccc23)Cc2ccccn2)nc(N2CCCCC2)n1
IC50 (Plasmodium falciparum [1]): 0.494 µM | selectivity ratio [2]: > 151 | Activity (Vero [3]): Non-Toxic | IC50 (Plasmodium falciparum [4]): 0.065 µM | selectivity ratio [5]: > 19.7

Cc1cc(N2CCCCC2)nc(N(CCCNc2ccnc3cc(Cl)ccc23)Cc2ccccn2)n1
IC50 (Plasmodium falciparum [1]): 0.945 µM | selectivity ratio [2]: > 7.9 | Activity (Vero [3]): Non-Toxic | IC50 (Plasmodium falciparum [4]): 1.19 µM | selectivity ratio [5]: > 10

Cc1cc(N2CCOCC2)nc(N(CCCNc2ccnc3cc(Cl)ccc23)Cc2cccs2)n1
IC50 (Plasmodium falciparum [1]): 0.542 µM | selectivity ratio [2]: > 167 | Activity (Vero [3]): Non-Toxic | IC50 (Plasmodium falciparum [4]): 0.0558 µM | selectivity ratio [5]: > 17.2

Cc1cc(N(CCCNc2ccnc3cc(Cl)ccc23)Cc2cccs2)nc(Cl)n1
IC50 (Plasmodium falciparum [1]): 0.606 µM | selectivity ratio [2]: > 42.2 | Activity (Vero [3]): Non-Toxic | IC50 (Plasmodium falciparum [4]): 0.246 µM | selectivity ratio [5]: > 17.1

C[C@@H]1CC[C@H]2[C@@H](C)C(=O)O[C@@H]3O[C@@]4(C)CC[C@@H]1[C@]32OO4 [ARTEMISININ]
IC50 (Plasmodium falciparum [1]): 0.0162 µM | selectivity ratio [2]: > 49.2 | Activity (Vero [3]): Non-Toxic | IC50 (Plasmodium falciparum [4]): 0.0171 µM | selectivity ratio [5]: > 52

Cc1cc(N(CCCNc2ccnc3cc(Cl)ccc23)Cc2cccs2)nc(N2CCOCC2)n1
IC50 (Plasmodium falciparum [1]): 0.409 µM | selectivity ratio [2]: 168 | IC50 (Plasmodium falciparum [4]): 0.0552 µM | selectivity ratio [5]: 22.7 | IC50 (Vero [6]): 9.3 µM

CCN1CCN(c2cc(C)nc(N(CCNc3ccnc4cc(Cl)ccc34)Cc3ccccn3)n2)CC1
IC50 (Plasmodium falciparum [1]): 0.039 µM | selectivity ratio [2]: > 270 | Activity (Vero [3]): Non-Toxic | IC50 (Plasmodium falciparum [4]): 0.034 µM | selectivity ratio [5]: > 273

CCN(CC)CCCC(C)Nc1ccnc2cc(Cl)ccc12 (stereo unspecified) [CHLOROQUINE]
Activity (Vero [3]): Non-Toxic

Cc1cc(N(CCCNc2ccnc3cc(Cl)ccc23)Cc2ccccn2)nc(Cl)n1
IC50 (Plasmodium falciparum [1]): 0.319 µM | selectivity ratio [2]: > 7.6 | Activity (Vero [3]): Non-Toxic | IC50 (Plasmodium falciparum [4]): 1.39 µM | selectivity ratio [5]: > 33.5

CCN1CCN(c2nc(C)cc(N(CCCNc3ccnc4cc(Cl)ccc34)Cc3ccccn3)n2)CC1
IC50 (Plasmodium falciparum [1]): 0.137 µM | selectivity ratio [2]: > 321 | Activity (Vero [3]): Non-Toxic | IC50 (Plasmodium falciparum [4]): 0.028 µM | selectivity ratio [5]: > 66
